Key:
Experiment in all cases: relative viability (nuclei count vs DMSO), 5 days (fraction); higher = more cells survive
BAY61-3606 + Olaparib = compound: COC1=C(C=C(C=C1)C2=CC3=NC=CN3C(=N2)NC4=C(C=CC=N4)C(=O)N)OC [BAY61-3606] + O=C(c1cc(Cc2n[nH]c(=O)c3ccccc23)ccc1F)N1CCN(C(=O)C2CC2)CC1 [Olaparib] (partner 8 µM)
Outline: (§1)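 Lung cancer cell lines, seeded in 1536-well plates, were treated the following day by pin tool with a single drug or with five library-drug doses (not always all listed) in √10 steps on top of a fixed anchor-drug dose. Cells were fixed and nuclei stained in one step after 5 days, and nuclei were counted. Relative viability is the nuclei count for treated wells divided by that for vehicle wells, reported as medians of duplicate plates.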

BAY61-3606 + Pemetrexed = compound: COC1=C(C=C(C=C1)C2=CC3=NC=CN3C(=N2)NC4=C(C=CC=N4)C(=O)N)OC [BAY61-3606] + Nc1nc2[nH]cc(CCc3ccc(C(=O)N[C@@H](CCC(=O)O)C(=O)O)cc3)c2c(=O)[nH]1 [Pemetrexed] (partner 0.2 µM)
Outline: as §1

Doxorubicin + Vorinostat = compound: COc1cccc2c1C(=O)c1c(O)c3c(c(O)c1C2=O)C[C@@](O)(C(=O)CO)C[C@@H]3O[C@H]1C[C@H](N)[C@H](O)[C@H](C)O1 [Doxorubicin] + O=C(CCCCCCC(=O)Nc1ccccc1)NO [Vorinostat] (partner 1 µM)
Outline: as §1

Doxorubicin + Pictilisib = compound: COc1cccc2c1C(=O)c1c(O)c3c(c(O)c1C2=O)C[C@@](O)(C(=O)CO)C[C@@H]3O[C@H]1C[C@H](N)[C@H](O)[C@H](C)O1 [Doxorubicin] + CS(=O)(=O)N1CCN(Cc2cc3nc(-c4cccc5[nH]ncc45)nc(N4CCOCC4)c3s2)CC1 [Pictilisib] (partner 1 µM)
Outline: as §1

Cell Line | relative viability (BAY61-3606 + Olaparib; first compound 0.02 µM) | relative viability (BAY61-3606 + Olaparib; first compound 0.06325 µM) | relative viability (BAY61-3606 + Olaparib; first compound 0.2 µM) | relative viability (BAY61-3606 + Olaparib; first compound 0.6325 µM) | relative viability (BAY61-3606 + Olaparib; first compound 2 µM) | relative viability (BAY61-3606 + Pemetrexed; first compound 0.02 µM) | relative viability (BAY61-3606 + Pemetrexed; first compound 0.06325 µM) | relative viability (BAY61-3606 + Pemetrexed; first compound 0.2 µM) | relative viability (BAY61-3606 + Pemetrexed; first compound 0.6325 µM) | relative viability (BAY61-3606 + Pemetrexed; first compound 2 µM) | relative viability (Doxorubicin + Vorinostat; first compound 0.001 µM) | relative viability (Doxorubicin + Vorinostat; first compound 0.003162 µM) | relative viability (Doxorubicin + Vorinostat; first compound 0.01 µM) | relative viability (Doxorubicin + Vorinostat; first compound 0.03162 µM) | relative viability (Doxorubicin + Vorinostat; first compound 0.1 µM) | relative viability (Doxorubicin + Pictilisib; first compound 0.001 µM) | relative viability (Doxorubicin + Pictilisib; first compound 0.003162 µM) | relative viability (Doxorubicin + Pictilisib; first compound 0.01 µM) | relative viability (Doxorubicin + Pictilisib; first compound 0.03162 µM) | relative viability (Doxorubicin + Pictilisib; first compound 0.1 µM)
HCC-44 | 0.955 | 0.974 | 0.979 | 0.901 | 0.958 | 0.613 | 0.692 | 0.682 | 0.659 | 0.651 | 1.1 | 1.15 | 1.1 | 1.12 | 1.12 | 0.722 | 0.66 | 0.58 | 0.531 | 0.527
HCC-78 | 0.744 | 0.891 | 0.845 | 0.966 | 0.838 | 0.864 | 0.951 | 0.868 | 0.889 | 0.825 | 0.445 | 0.481 | 0.407 | 0.51 | 0.414 | 0.208 | 0.216 | 0.219 | 0.196 | 0.0644
HCC-366 | 0.406 | 0.436 | 0.365 | 0.324 | 0.235 | 0.187 | 0.174 | 0.181 | 0.164 | 0.165 | 0.279 | 0.403 | 0.306 | 0.211 | 0.122 | 0.155 | 0.182 | 0.119 | 0.162 | 0.162
HCC-827 | 0.648 | 0.737 | 0.67 | 0.606 | 0.624 | 0.274 | 0.295 | 0.274 | 0.254 | 0.262 | 0.559 | 0.854 | 0.856 | 0.774 | 0.641 | 0.851 | 1.01 | 0.985 | 0.993 | 0.935

Reference: the supplement of paper PMC10307832
